Values joined by “and” are separate entries in the source; they are usually repeats but may differ in a detail not shown here. Equal values may be shown once.

Holding throughout (type): in vivo, Balb/c mice
The subject of test [1] is peritoneal cells (macrophages, lymphocytes, mast cells). Nature of the test: Differential count in peritoneal cells. To be noted: for % of lymphocytes / % of macrophages / % of mast cells: peritoneal cells 24 hrs after i.p. injection. On the procedure:
Using the same experimental groups as described above in Example 4, two extra microscopic slides from each experimental sample were prepared. After Accustain (modified Wright stain, Sigma) staining, the slides were evaluated using the optical microscope for presence of individual types of cells, i.e. macrophages, lymphocytes and mast cells.

The test system of test [2] is cells from peripheral blood (monocytes, granulocytes). Nature of the test: Phagocytosis of HEMA particles by cells from peripheral blood after intraperitoneal injection. Particulars: for % of phagocytosing granulocytes / % of phagocytosing monocytes: peripheral blood 24 hrs after i.p. injection. Here is the method: A group of Balb/c mice (Jackson laboratory, Bar Harbor, ME, USA) has been injected intraperitoneally with either PBS (Control; Sigma, St. Louis, Mo., USA), Laminaritetraose or Laminaripentaose. 24 hrs later, mice were sacrified, peripheral blood from the orbital plexus was collected into heparine (5 IU/ml) (Sigma).
After counting, a test of phagocytosis of HEMA particles (synthetic microspheres prepared from 2-hydroxyethylmethacrylate copolymer) was performed as described in: Rembaum et al., 1976, Vetvicka et al. 1982, Bilej et al., 1989.
0.1 ml of heparinized fresh blood was added to 0.05 ml of diluted HEMA particles (5×10^8/ml) and incubated for 60 minutes at 37° C. with occasional gentle agitation.
After the end of incubation, the cell suspension was smeared over microscope slides. Smears were evaluated under the optical microscope after Accustain (modified Wright stain, Sigma) staining.
Cells with at least three engulfed particles were considered to be positive.

Test [3] concerns peripheral blood cells (monocytes, lymphocytes, granulocytes). Nature of the test: Differential count in blood. To be noted: for % of granulocytes / % of lymphocytes / % of monocytes: peripheral blood 24 hrs after i.p. injection. Here is the method: Using the same experimental groups as described above in Example 3, two extra microscopic slides from each experimental sample were prepared. After Accustain (modified Wright stain, Sigma) staining, the slides were evaluated using the optical microscope for presence of individual types of cells, i.e. monocytes, lymphocytes and granulocytes.

Test [4] has as its system TNF-alpha. Nature of the test: Cytokine level in peripheral blood: TNF-alpha in serum by OptEIA Mouse TNF-alpha ELISA. Particulars: for TNF-alpha level (Table 6, same experiments as Table 5): 250 μg/mouse, unit not given in Table 6 (Table 5: pg/ml); for Relative activity on TNF-alpha level (in words): comparison between substances, Table 6, 24 and 48 h. On the procedure: Balb/c mice were intraperitoneally injected with 50 μg of Laminaritetraose, Laminaripentaose, Laminarin or Lentinan (purchased from NIH, Bethesda, Md., USA) in PBS.
After various time intervals (30, 60 and 90 minutes, respectively), after the injection of Laminaritetraose, Laminaripentaose, Laminarin, Lentinan only, the mice were killed and blood was collected in Eppendorf tubes.
Subsequently, the serum of the collected blood was separated, collected and stored at −80° C. for no more than 1 week.
The level of TNF-alpha in the serum samples was evaluated using a commercial kit marketed as OptEIA Mouse TNF-alpha (Mono/Mono) Set by the Company Pharmingen, San Diego, Calif., USA); the manufacturer's instructions were followed.
In connection with the experiments carried out by Applicants, Balb/c mice were intraperitoneally injected with various doses (50, 100, and 250 μg) of Soluble laminarin and Lentinan (from NIH, Bethesda, Md., USA) in PBS.
Control mice were treated with PBS only. […]
Subsequently, the serum was prepared, collected and stored at −80° C. for no more than 1 week.
The level of TNF-alpha in serum samples was evaluated using a commercial kit marketed as OptEIA Mouse TNF-alpha (Mono/Mono) Set by the Company Pharmingen, San Diego, Calif., USA); the manufacturer's instructions were followed.
In that respect, The wells of 96-well plates were coated with 0.1 ml/well of capture antibody (provided in the above kit) diluted in coating buffer (also provided in the above kit); the expression “capture antibody” designates first antibody used for coating of wells; this antibody captures the tested cytokines from the solution; in this assay it was anti-mouse-TNF-alpha monoclonal antibody.
The plates were sealed and incubated overnight at 4° C.
Individual wells were emptied by aspiration and washed 3 times with over 300 el/well of wash buffer (also provided in the kit).
Reaction was blocked with 200 el/well of assay dilutant diluent (also provided in the kit) and by incubation for 60 minutes at room temperature.
Again, individual wells were emptied by aspiration and washed 3 times with over 300 el/well of the same wash buffer.
Standards (also provided in the kit) and samples of serum were diluted in assay diluent (also provided in the kit) and pipetted (100 μl/well) in appropriate wells; as far as the dissolution rate is concerned standards (part of the kit) were diluted according to the instructions into following concentrations: 1000 pg/ml, 500 pg/ml, 250, 125, 62.5, 31.3, and 15.6 pg/ml.
The plates were sealed and incubated for 60 minutes at room temperature. Individual wells were aspirated and washed 3 times with over 300 μl/well of the same wash buffer. A quantity of 100 μl/well of a working detector (antibody-avidin-HRP conjugate also provided in the kit) was added into each well.
The plates were sealed with plastic foils and incubated for 60 minutes at room temperature. Individual wells were emptied by aspiration and washed 3 times with over 300 μl/well of same wash buffer.
A quantity of 100 μl/well of substrate solution (also provided in the kit) was added to each well and the plates were incubated for 30 minutes in the dark at room temperature; “substrate solution” is formed by mixing a substrate reagent A containing hydrogen peroxide and Substrate reagent B containing 3,3′,5,5′-tetramethylbenzidine in organic solvent; when mixed together, the reagent reacts with peroxidase-labeled conjugates to develop a blue color.
A quantity of 50 μl/well of stop solution provided in the kit and adapted to stop the reaction was added to each well and the optical density was determined using a STL ELISA reader (marketed by Tecan U.S., Research Triangle Park, N.C.) at 450 nm with a correction at 570 nm.
The concentration of TNF-alpha, in pg/ml, in the blood of the mice treated as hereabove disclosed has been determined at the following moments: 30, 60 and 90 minutes after the injection of Laminaritetraose, Laminaripentaose, Lentinan and control. […]
(In an ELISA, binding on a coated surface is turned into a signal by an enzyme label.)

Test [5] deals with peritoneal macrophages. Kind of test: Phagocytosis of HEMA particles by cells from peritoneal cavity after intraperitoneal injection. Particulars: for % of phagocytosing macrophages: peritoneal cells 24 hrs after i.p. injection. Here is the method:
A group of Balb/c mice (Jackson laboratory, Bar Harbor, Me., USA) has been injected intraperitoneally with either PBS (control), Laminaritetraose or Laminaripentaose. 24 hrs later, mice were sacrificed, peritoneal cells were collected into Hanks medium (Sigma).
After counting the cells in hemocytometer, the peritoneal cells were diluted to lxlO7 cells in RPMI 1640 medium (Sigma) with 5% fetal calf serum (Hyclone, Logan, Utah, USA).
2×10^6 cells in 0.2 ml of RPMI 1640 medium supplemented with 5% fetal calf serum were mixed with the same volume of HEMA particles (5×10^8/ml).
The suspension was incubated for 60 minutes at 37° C. with occasional agitation. Incubation was terminated by centrifugation (150 g for 5 minutes) and the pellet was resuspended.
Macrophages with ingested particles were scored under the optical microscope in smears after Accustain (modified Wright stain, Sigma) staining.
Cells with six or more engulfed particles were considered to be positive.

[6] abbreviates: individual values, cells with at least three engulfed HEMA particles positive.
The mark [7] stands for this setting: mean, at least three engulfed HEMA particles.

Regarding `OC[C@H]1O[C@@H](O[C@@H]2[C@@H](O)[C@H](O[C@@H]3[C@@H](O)[C@H](O[C@@H]4[C@@H](O)[C@H](O[C@@H]5[C@@H](O)[C@H](O)O[C@H](CO)[C@H]5O)O[C@H](CO)[C@H]4O)O[C@H](CO)[C@H]3O)O[C@H](CO)[C@H]2O)[C@H](O)[C@@H](O)[C@@H]1O` [Laminaripentaose, β-D-glucopyranosyl-(1→3)-β-D-glucopyranosyl-(1→3)-β-D-glucopyranosyl-(1→3)-β-D-glucopyranosyl-(1→3)-β-D-glucopyranose], the “% of lymphocytes” value is 48.1% and 48.0% and 34.7% in test [1] (individual values); 43.4% in test [1] (mean); 57.1% and 54.1% and 53.3% in test [3] (individual values); 54.8% in test [3] (mean). Further, the “% of macrophages” value in test [1] (individual values) was 50.4% and 48.1% and 59.8%; in test [1] (mean), 52.8%. Further, the “% of mast cells” value in test [1] (individual values) is 1.5% and 3.9% and 5.5%; in test [1] (mean), 3.6%. In test [1] (versus PBS control), the “Effect on migration of macrophage into the peritoneal cavity (in words)” value is recorded as “stimulate the migration of macrophage”. Moreover, the “% of phagocytosing granulocytes” value in test [2] (setting [6]) is 40.8% and 42.5% and 46.4%; in test [2] (setting [7]), 43.2%. Also, the “% of phagocytosing monocytes” value is 41.6% and 43.1% and 49.6% in test [2] (setting [6]); 44.8% in test [2] (setting [7]). For the same compound, the “Effect on phagocytosis in monocytes and granulocytes (in words)” value in test [2] (peripheral blood, versus PBS control) is recorded as “strongly stimulate phagocytosis”. Moreover, the “% of granulocytes” value in test [3] (individual values) was 33.8% and 35.9% and 36.9%; in test [3] (mean), 35.5%. For the same compound, the “% of monocytes” value in test [3] (individual values) was 9.1% and 1.0% and 9.8%; in test [3] (mean), 9.4%. The “Effect on number of granulocytes in the peripheral blood (in words)” value in test [3] (versus PBS control) was “increase the number of granulocytes”. The “Concentration of TNF alpha in blood of treated mice” value (from here on “Concentration of TNF alpha”) is 34.3 pg/mL in test [4] (50 μg/mouse i.p., 30 min); 37.0 pg/mL in test [4] (50 μg/mouse i.p., 60 min); 71.3 pg/mL in test [4] (50 μg/mouse i.p., 90 min); 53.0 pg/mL in test [4] (100 μg/mouse i.p., 30 min); 46.5 pg/mL in test [4] (100 μg/mouse i.p., 60 min); 93.2 pg/mL in test [4] (100 μg/mouse i.p., 90 min). Also, the “Concentration of TNF alpha” value in test [4] (250 μg/mouse i.p., 30 min) came to 42.1 pg/mL; in test [4] (250 μg/mouse i.p., 60 min), 36.4 pg/mL; in test [4] (250 μg/mouse i.p., 90 min), 24.4 pg/mL. Besides, the values for the TNF-alpha level (Table 6, same experiments as Table 5) in test [4] (24 hours) and in test [4] (48 hours) were 79.6 pg/mL and 38.7 pg/mL, respectively. Also, the results for the “Relative activity on TNF-alpha level (in words)” value in test [4] and in test [4] (listed as laminaripentaose) were “more active than Laminaritetraose” and “more active than yest derived glucan (Lentinan)”, respectively. The “Increase of TNF-alpha secretion compared with Lentinan (in words)” value in test [4] (low doses, indirect activation of macrophages and cytotoxic T lymphocytes) is “significantly higher”. Further, the “% of phagocytosing macrophages” value is 54.9% and 57.3% and 62.7% in test [5] (individual values, cells with six or more engulfed HEMA particles positive); 58.3% in test [5] (mean, six or more engulfed HEMA particles). Also, the “Effect on phagocytosis of peritoneal macrophages (in words)” value in test [5] (peritoneal cells, versus PBS control) is “strongly stimulate phagocytosis”.
Take Lentinan [reference compound]: the “Concentration of TNF alpha” value in test [4] (50 μg/mouse i.p., 30 min) stood at 20 pg/mL; in test [4] (50 μg/mouse i.p., 60 min), 15.7 pg/mL; in test [4] (50 μg/mouse i.p., 90 min), 32.0 pg/mL; in test [4] (100 μg/mouse i.p., 30 min), 28 pg/mL; in test [4] (100 μg/mouse i.p., 60 min) it was 30.7 pg/mL; in test [4] (100 μg/mouse i.p., 90 min) it was 20.3 pg/mL. In addition, the “Concentration of TNF alpha” value in test [4] (250 μg/mouse i.p., 30 min) is 86.3 pg/mL; in test [4] (250 μg/mouse i.p., 60 min) it was 68.7 pg/mL; in test [4] (250 μg/mouse i.p., 90 min), 48.6 pg/mL.

The values are drawn from patent US20050065114A1, “Therapeutical treatment with oligo-beta- (1,3) -glucans, drugs used in said treatment” (priority 2003, published 2005).
